Tested on: HEK293T cells
Experiment: Compound treatment: DNA-PK inhibitor added after sgRNP nucleofection, DNA repair outcomes profiled by amplicon sequencing
Format: cell-based, human
Procedure: For compound treatments, sgRNP formation and nucleofection of 293T cells was performed as described above and cells were plated in 150 μl of culture medium. One hour after plating, 50 μl of media containing compound at 4× the final concentration were delivered to the cells. […] 48 hours after compound addition, cells were harvested and processed for genomic DNA preparation as described below.
K562 cells and HSCs were transferred to a thermal cycler compatible plate and pelleted by centrifugation. After the media was gently aspirated, 50 μl EpiBio QuickExtract DNA extraction solution (Epicentre, QE09050) was added into each well and the plate was incubated at 37° C. for 15 minutes. For HEK293 and HCT116 cells, media was gently aspirated from 96-well culture plates and cells were gently rinsed with 1×Phosphate Buffered Saline (PBS). 50 μl of EpiBio QuickExtract DNA extraction solution was added to each well and the plates were incubated at 37° C. for 15 minutes. For all cell types, molecular biology grade water (Teknova) was added to each well to attain a concentration of 1000 genomic copies/μl for subsequent PCR reactions. After addition of water, adherent cells were then transferred to thermal cycler compatible plates. All cell types were lysed (75° C. 10 min, 95° C. 5 min) and the lysate was stored at −80° C. […]
Following secondary alignment, reads were then categorized as “mutant” if they contained an indel within ±5 base pairs of the cut site; otherwise, they were categorized as “wild type”. Each mutant read was assigned to an “indel class” based on the indel type (insertion or deletion), start site, and length.
Heat maps were generated from the processed sequencing data as follows. […] The color intensities in the cells correspond to frequency as a fraction of mutant reads, with the color scale ranging from 0 to 0.2 (saturation). […]

[1] = as inhibitor concentration increased (1.56 μM-25 μM), 48 hours

O=c1cc(N2CCOCC2)oc2c(-c3cccc4c3sc3ccccc34)cccc12 [NU7441]
mean frequency of a subset of large deletions (>3 base pairs) present in the DNA repair profiles [1]: increased
mean frequency of single base insertions and small deletions (<3 base pairs) [1]: decreased
change of the DNA repair patterns at 12 different target sites compared with untreated samples (lowest concentration of inhibitor (1.56 μM), added one hour post nucleofection, harvested 48 hours): apparent

From patent US11155814B2, “Methods for using DNA repair for cell engineering” (Caribou Biosciences, Inc., priority 2016, dated 2021)
